According to patent US20170087113A1, “METHODS FOR TREATING UREA CYCLE DISORDERS TO PREVENT HYPERAMMONEMIC CRISES BY CONTROLLING BLOOD AMMONIA LEVELS” (HORIZON THERAPEUTICS, LLC, priority 2014, published 2017):

Key:
[1] = tested on: UCD patients; assay: Occurrence of hyperammonemic crises (HAC): 12 months pre-enrollment on NaPBA versus 12-month GPB treatment (studies HPN-100-005, -007, -012); type: in vivo, human; settings: for # of HA events (total no. of HAC): 12 months pre-study (NaPBA) or during study (GPB); for # of HACs / Subjects with 1 or more HACs: subjects ages 6 years or higher, total N=77, pre-study (NaPBA) or study (GPB)
Source text: Data from four short-term switchover (SO) studies and three 12-month safety extension (SE) studies in adult and pediatric UCD patients were included in the analyses; all have been previously described. […] Most patients completing these protocols plus additional patients (a total of 100 of whom 49 were pediatric) were enrolled into safety extension studies and received GPB for 12 months (Diaz 2013), (Mokhatarani 2013), (Berry 2014).
All protocols and informed consents were reviewed and approved by the Investigational Review Board of each participating institution prior to initiation. […] In all studies, patients received GPB three times daily (or more frequently in small children to match their prior NaPBA schedule) at a daily dose equivalent to their previously prescribed NaPBA dose. […] Fasting ammonia and glutamine levels were analyzed as a predictor of HACs during long-term treatment.
(§1) During the 12 month studies, blood samples for ammonia and glutamine analyses were collected monthly and information on HACs was recorded. […] Ammonia and glutamine concentrations were measured by an accredited hospital laboratory at each study site and ammonia values were normalized to a standard range of 9 to 35 μmol/L.
Data for 100 UCD subjects from three clinical trials (HPN-100-005, HPN-100-007, and HPN-100-012) were analyzed to evaluate the correlation between fasting ammonia levels and HAC (Table 1). Patients were treated for 12 months with GPB during the study. There was an almost equal split in the number of subjects who were adults (51%) and children (49%), defined as age<18 years at the time of enrollment. In this population, 30 patients had experienced a total of 54 HACs in the 12 months prior to the study and 19 patients experienced a total of 27 HACs during the study (Table 1). Baseline ammonia was defined as the subject's fasting ammonia level taken either at month zero or at the screening visit depending on which study the subject was enrolled in and whether the subject was enrolled in previous studies.

[2] = tested on: UCD patients; assay: Duration of HAC during the 12-month GPB studies; type: in vivo, human
Procedure: The relationship between ammonia exposure and duration of HAC was analyzed. Ammonia exposure was characterized three different ways: peak ammonia during crisis, total ammonia during crisis and ammonia at time of admission. The majority of the HACs typically lasted a day, and a steep drop off in the distribution was seen after 2 days. (Note: two subjects were excluded with 20 days of duration of HAC in this analyses).

[3] = tested on: venous ammonia; settings: study HPN-100-006 (Diaz 2013); cited from earlier work
[4] = tested on: glutamine; assay: Glutamine levels and exposure during 12-month GPB treatment; type: in vivo, human
Procedure: as §1
The relationship between glutamine levels and ammonia categories was also analyzed. […] Glutamine levels were analyzed over the 12 month study period in patients treated for 12 months with GPB. Monthly glutamine levels were generally higher in patients in the higher baseline ammonia ULN groups and, by three months of treatment, had decreased in the patients with the highest baseline glutamine at baseline (FIG. 14A).

[5] = tested on: blood ammonia; assay: Total ammonia exposure (TNAUC of monthly ammonia) during 12-month GPB treatment; type: in vivo, human; design: TNAUC ammonia, mean: unit not given beside the values; settings: for TNAUC ammonia, mean: patients with HAC, N=19; for TNAUC ammonia, mean (SD): patients with no HAC, N=81
Procedure: as §1
The relationship between total ammonia exposure over time and the risk of HAC occurrence was explored by calculating time normalized area under the curve (TNAUC12months) for ammonia for patients with and without an HAC during the 12-month treatment with GPB (Table 13). The AUC for ammonia, measured monthly, was calculated for each patient using the trapezoid rule over the course of the 12 month study. To normalize the AUC, TNAUCxmonth, AUC was divided by the final study month of an ammonia assessment.

[6] = all patients N=100, pre-study (NaPBA) or during study (GPB)
[7] = study 005, N=17, pre-study (NaPBA) or during study (GPB)
[8] = study 007, N=60, pre-study (NaPBA) or during study (GPB)
[9] = study 012, N=23, pre-study (NaPBA) or during study (GPB)

sodium phenylbutyrate [NaPBA]
12-month incidence of HAC ([1]; adult (≧18 years)): 0.832
Proportion of patients who experienced an HAC ([1]; adult (≧18 years)): 17.7%
# of HA events (total no. of HAC) ([1]; all patients N=100): 54
N with ≧1 HA events (number of patients with HAC) [1, 6]: 30
Proportion of patients who experienced an HAC [1, 6]: 30.0%
12-month incidence of HAC ([1]; female): 0.712
Proportion of patients who experienced an HAC ([1]; female): 23.9%
12-month incidence of HAC ([1]; male): 0.516
Proportion of patients who experienced an HAC ([1]; male): 42.4%
12-month incidence of HAC ([1]; non-white): 0.660
Proportion of patients who experienced an HAC ([1]; non-white): 36.8%
12-month incidence of HAC ([1]; pediatric (<18 years)): 0.338
Proportion of patients who experienced an HAC ([1]; pediatric (<18 years)): 42.9%
# of HA events [1, 7]: 8
N with ≧1 HA events [1, 7]: 5
# of HA events [1, 8]: 17
N with ≧1 HA events [1, 8]: 10
# of HA events [1, 9]: 29
N with ≧1 HA events [1, 9]: 15
# of HACs [1]: 25
Subjects with 1 or more HACs [1]: 15
12-month incidence of HAC ([1]; white): 0.564
Proportion of patients who experienced an HAC ([1]; white): 28.4%

O=C(CCCc1ccccc1)OCC(COC(=O)CCCc1ccccc1)OC(=O)CCCc1ccccc1 [GPB, glycerol phenylbutyrate]
Duration of HAC that lasted less than 2 days ([2]; overall): about 64%
Duration of HA crisis 1-1.99 days ([2]; study 005): 0.0%
Duration of HA crisis 2-2.99 days ([2]; study 005): 50.0%
Duration of HA crisis <1 days ([2]; study 005): 50.0%
Duration of HA crisis >3 days ([2]; study 005): 0.0%
Duration of HA crisis, median ([2]; study 005): 1.27 days
Duration of HA crisis, mean ([2]; study 005, N=2): 1.27 days
Duration of HA crisis 1-1.99 days ([2]; study 007): 16.7%
Duration of HA crisis 2-2.99 days ([2]; study 007): 33.3%
Duration of HA crisis <1 days ([2]; study 007): 41.7%
Duration of HA crisis >3 days ([2]; study 007): 8.3%
Duration of HA crisis, median ([2]; study 007): 1.36 days
Duration of HA crisis, mean ([2]; study 007, N=12): 1.95 days
Duration of HA crisis 1-1.99 days ([2]; study 012): 18.2%
Duration of HA crisis 2-2.99 days ([2]; study 012): 18.2%
Duration of HA crisis <1 days ([2]; study 012): 54.6%
Duration of HA crisis >3 days ([2]; study 012): 9.1%
Duration of HA crisis, median ([2]; study 012): 0.92 days
Duration of HA crisis, mean ([2]; study 012, N=11): 1.53 days
Duration of HA crisis 1-1.99 days ([2]; total, N=25): 16.0%
Duration of HA crisis 2-2.99 days ([2]; total, N=25): 28.0%
Duration of HA crisis >3 days ([2]; total, N=25): 8.0%
Duration of HA crisis, mean ([2]; total, N=25): 1.71 days
Duration of HA crisis, median ([2]; total, N=25): 1.00 days
Lower HAC incidence rate during study (GPB) than pre-enrollment ([1]; 0.288 versus […]): roughly 50%
Proportion of patients who experienced an HAC ([1]; Group 1 study sites (33 patients, >50% with baseline ammonia <0.5 ULN)): 12%
Proportion of patients who experienced an HAC ([1]; Group 2 study sites (29 patients)): 21%
Proportion of patients who experienced an HAC ([1]; Group 3 study sites (38 patients)): 24%
# HAC ([1]; Month 0-3 of GPB treatment): 5
% of Total HAC ([1]; Month 0-3 of GPB treatment): (18.5%)
HAC Incidence Rate/month ([1]; Month 0-3 of GPB treatment): 0.0170
# HAC ([1]; Month 0-6 of GPB treatment): 13
% of Total HAC ([1]; Month 0-6 of GPB treatment): (48.1%)
HAC Incidence Rate/month ([1]; Month 0-6 of GPB treatment): 0.0224
# HAC ([1]; Month 0-9 of GPB treatment): 20
% of Total HAC ([1]; Month 0-9 of GPB treatment): (74.1%)
HAC Incidence Rate/month ([1]; Month 0-9 of GPB treatment): 0.0234
# HAC ([1]; Month 0-12 of GPB treatment): 27
% of Total HAC ([1]; Month 0-12 of GPB treatment): (100%)
HAC Incidence Rate/month ([1]; Month 0-12 of GPB treatment): 0.0240
Proportion of patients who experienced an HAC during the study ([1]; OTC deficiency (n=69)): 18.8%
12-month incidence of HAC ([1]; adult (≧18 years)): 0.371
Proportion of patients who experienced an HAC ([1]; adult (≧18 years)): 13.7%
Proportion of patients with no HAC ([1]; adult ≧18 years, during study): 86.3%
Subjects who had not experienced an HAC (Kaplan-Meier, HAC-free survival) ([1]; after about one year of follow-up during treatment with GPB): 80%
Proportion of patients who experienced an HAC ([1]; age 6-11 years, during study): 23.5%
Proportion of patients with no HAC ([1]; age 6-11 years, during study): 76.5%
Proportion of patients who experienced an HAC ([1]; age 12-17 years, during study): 11.1%
Proportion of patients with no HAC ([1]; age 12-17 years, during study): 88.9%
Proportion of patients who experienced an HAC ([1]; age <6 years, during study): 30.4%
Proportion of patients with no HAC ([1]; age <6 years, during study): 69.6%
# of HA events (total no. of HAC) ([1]; all patients N=100): 27
N with ≧1 HA events (number of patients with HAC) [1, 6]: 19
Proportion of patients who experienced an HAC [1, 6]: 19.0%
Proportion of patients with no HAC ([1]; all patients, during study): 81.0%
Proportion of patients with no HAC ([1]; baseline ammonia 0-<0.5 ULN, during study): 89.7%
Proportion of patients with no HAC ([1]; baseline ammonia 0.5-<1.0 ULN, during study): 85.3%
Proportion of patients with no HAC ([1]; baseline ammonia ≧1 ULN, during study): 63.0%
12-month incidence of HAC ([1]; female): 0.314
Proportion of patients who experienced an HAC ([1]; female): 16.4%
Proportion of patients with no HAC ([1]; female, during study): 83.6%
12-month incidence of HAC ([1]; male): 0.275
Proportion of patients who experienced an HAC ([1]; male): 24.2%
Proportion of patients with no HAC ([1]; male, during study): 75.8%
Proportion of patients who experienced an HAC during the study ([1]; non-OTC deficiencies): 19.4%
12-month incidence of HAC ([1]; non-white): 0.248
Proportion of patients who experienced an HAC ([1]; non-white): 21.1%
Proportion of patients with no HAC ([1]; non-white, during study): 78.9%
12-month incidence of HAC ([1]; pediatric (<18 years)): 0.209
Proportion of patients who experienced an HAC ([1]; pediatric (<18 years)): 24.5%
Proportion of patients with no HAC ([1]; pediatric <18 years, during study): 75.5%
# of HA events [1, 7]: 3
N with ≧1 HA events [1, 7]: 3
# of HA events [1, 8]: 12
N with ≧1 HA events [1, 8]: 9
# of HA events [1, 9]: 12
N with ≧1 HA events [1, 9]: 7
# of HACs [1]: 15
Subjects with 1 or more HACs [1]: 12
12-month incidence of HAC ([1]; white): 0.296
Proportion of patients who experienced an HAC ([1]; white): 18.5%
Proportion of patients with no HAC ([1]; white, during study): 81.5%
Ammonia control of GPB versus NaPBA as assessed by venous ammonia [3]: non-inferiority
Change of glutamine levels during GPB treatment ([4]; patients with the highest baseline glutamine, by three months of treatment): decreased
Total glutamine exposure, TNAUC12month ([4]; subjects with an HAC during the study): 720.9 μmol/L*m
Total glutamine exposure, TNAUC12month ([4]; subjects without an HAC during the study): 699.4 μmol/L*m
TNAUC ammonia, mean ([5]; Month 0-3): 33.3
TNAUC ammonia, mean (SD) ([5]; Month 0-3): 23.5 (13.62)
TNAUC ammonia, mean ([5]; Month 0-6): 33.0
TNAUC ammonia, mean (SD) ([5]; Month 0-6): 24.0 (13.85)
TNAUC ammonia, mean ([5]; Month 0-9): 33.4
TNAUC ammonia, mean (SD) ([5]; Month 0-9): 23.7 (12.56)
TNAUC ammonia, mean ([5]; Month 0-12): 35.0
TNAUC ammonia, mean (SD) ([5]; Month 0-12): 23.6 (11.94)
